# Measurements as given in article PMC6865065 (Journal of clinical oncology : official journal of the …, 2016).
# Several values for one entry are separate records, joined by “and”; a condition that tells them apart may be missing. Equal entries are not always repeated. Entries after “also recorded” stand apart in the source; their conditions may differ. Where two headings read alike, the source gives them in different places.
# How the values were obtained:
# FGFR4 = details: read-out: Half maximal inhibitory concentration; cited from earlier work
# [1] = tested on: solid tumors harboring FGFR alterations; assay: Antitumor activity, RECIST v1.0 tumor evaluations; format: in vivo, human
# [2] = tested on: patients with advanced solid tumors harboring FGFR genetic alterations
# [3] = Pharmacokinetics: BGJ398 plasma concentrations; format: in vivo, human
# [4] = on the basis of preclinical data ref 20; cited from earlier work
# [5] = tested on: RT112 human tumor-derived FGFR gene fusion bladder cancer cell line; details: read-out: Half maximal inhibitory concentration; cited from earlier work
# [6] = tested on: patients with advanced solid tumors harboring FGFR genetic alterations; assay: Patient disposition and treatment exposure; format: in vivo
# serum phosphate levels = assay: Pharmacodynamics: serum phosphate levels; format: in vivo, human; details: BGJ398 treatment; consistently at doses ≥ 100 mg
# [7] = 36 patients with FGFR1-amplified sqNSCLC, ≥ 100 mg continuously
# [8] = eight patients with FGFR3-mutated bladder/urothelial cancer, ≥ 100 mg
smiles,measurement,setting,value
"CCN1CCN(c2ccc(Nc3cc(N(C)C(=O)Nc4c(Cl)c(OC)cc(OC)c4Cl)ncn3)cc2)CC1 [BGJ398, 3-(2,6-dichloro-3,5-dimethoxy-phenyl)-1-{6-[4-(4-ethyl-piperazin-1-yl)-phenylamino]-pyrimidin-4-yl}−1-methyl-urea]",IC50,FGFR4,[…]
same,Patients continuing to receive treatment for > 8 weeks,[1]; 31 sqNSCLC patients treated at 125 mg continuously,12
same,Disease control rate (DCR: PR + SD),[1]; [7],50%
same,Patients achieving PRs (overall response rate),[1]; [7],11.1% and 11%
same,Patients with SD,[1]; [7],14 patients
same,Patients with reduced tumor burden,[1]; 85 patients treated at ≥ 100 mg with evaluable data (28 patients),32.9%
same,Time responder remained on study,"[1]; FGFR1-amplified sqNSCLC, unconfirmed PR",26.3 weeks
same,Patients with best overall response of SD,"[1]; all patients, N = 132",42
same,Tumor burden change,[1]; all three patients with FGFR2-altered cholangiocarcinoma with pre- and post-treatment assessments,reduced tumor burden
same,Patients with best response of SD,"[1]; breast cancer, ≥ 100 mg, 10 of 32 patients",31%
same,Partial responses,"[1]; doses ≥ 100 mg, FGFR1-amplified sqNSCLC and FGFR3-mutant bladder/urothelial cancer, six confirmed",seven
same,Disease control rate (DCR),[1]; [8],75%
same,Patients achieving PRs (overall response rate),[1]; [8],37.5% and 38%
same,Patients with reduced tumor burden,[1]; [8],62.5%
same,Patients with disease control,[1]; of 132 patients across all doses,49
same,Dose-limiting toxicity observed,"[2]; 100 mg, n = 1",grade 3 aminotransferase elevations; also recorded: grade 3 increases in ALT/AST
same,Dose-limiting toxicity observed,"[2]; 150 mg, n = 1 each",grade 1 corneal toxicity; also recorded: grade 3 aminotransferase elevations; also recorded: grade 3 increases in ALT/AST
same,Reversibility of DLTs,[2]; after BGJ398 interruption and/or concomitant medication,reversible
same,Patients who died while receiving treatment or within 28 days of the last dose,"[2]; all doses, N = 132",Fifteen
same,Patients experiencing DLTs,"[2]; dose-determining set, four of 34 patients, cycle 1",11.8%
same,"AE leading to discontinuation, patients","[2]; human, in vivo",13.6%
same,"AE requiring dose adjustment or interruption, patients","[2]; human, in vivo",59.1%
same,"Asymptomatic hyperphosphatemia suspected to be treatment related, patients","[2]; human, in vivo",72.7%
same,"At least one AE suspected to be treatment related, patients","[2]; human, in vivo",95.5%
same,"Eye-related AE leading to discontinuation, patients","[2]; human, in vivo",4.5%
same,"Grade 3/4 AE suspected to be treatment related, patients","[2]; human, in vivo",31.1%
same,"Grade 3/4 TEAEs, patients","[2]; human, in vivo",52.3%
same,Median time to first dose interruption,"[2]; human, in vivo",22 days
same,"Treatment-emergent AEs (TEAEs), patients","[2]; human, in vivo",99.2%
same,"Treatment-related alopecia, patients","[2]; human, in vivo",23.5%
same,"Treatment-related decreased appetite, patients","[2]; human, in vivo",28.8%
same,"Treatment-related diarrhea, patients","[2]; human, in vivo",27.3%
same,"Treatment-related fatigue, patients","[2]; human, in vivo",25.0%
same,"Treatment-related nausea, patients","[2]; human, in vivo",22.0%
same,"Treatment-related stomatitis, patients","[2]; human, in vivo",36.4%
same,Dose-limiting toxicity observed,[2]; in vivo,hyperphosphatemia
same,Deaths attributed to PD or to related AEs,[2]; of fifteen deaths,11
same,Deaths suspected to be BGJ398 related,[2]; of fifteen deaths,One
same,Maximum tolerated dose (MTD),"[2]; oral, once daily",125 mg
same,Recommended phase II dose (RP2D),"[2]; oral, once daily, 3-weeks-on/1-week-off schedule",125 mg
same,Increase of mean AUC from 0 to 24 hours on day 1,[3]; from 20 to 150 mg once daily,approximately nine
same,Tmax,"[3]; human, plasma, oral, Median time to reach maximum plasma concentration, after a single dose",2 to 3 h
same,IC50,[5],4 nM
same,Discontinuation because of death,[6]; N = 132,3.8%
same,Discontinuation because of disease progression,[6]; N = 132,67.4%
same,Discontinuation because of AEs,"[6]; human, in vivo",12.9%
same,Serum phosphate levels,serum phosphate levels,increased serum phosphate levels; also recorded: Elevated serum phosphate levels
